Source: US6770660B2, “Method for inhibiting platelet aggregation” (Artery LLC, priority 2002, dated 2004)
Counter-ions that a name gives are not always drawn. Like-named read-outs stand apart in the source and are kept apart here.

Assays:
[1] = for major bleeding episodes: patients
Description: Patients were treated with a 20 μg/kg bolus of tirofiban hydrochloride followed by a 0.15 μg/kg/min infusion for 18-24 hours or a 25 μg/kg bolus followed by the same infusion. Enrollment of subjects in the panel with the 20 μg/kg bolus (n=15/panel) was completed and the clinical effects and pharmacodynamic properties were evaluated before subjects were enrolled in the panel with the 25 μg/kg bolus. Patients were treated with aspirin (325 mg before the procedure and daily) and unfractionated heparin (target activated clotting time 250 seconds). Clopidogrel (300 mg and then 75 mg daily)(commercially available as PLAVIX®) was administered at least 45 minutes after the start of tirofiban hydrochloride. All other medications were administered at the discretion of the attending cardiologist. Sheath removal was performed when the activated clotting time was less than 175 seconds unless a closure device was used. […] The occurrence of 3 major bleeding episodes (as defined by the American College of Cardiology Task force (Cannon et al. J. Am. Coll. Cardiol. (2001) vol. 38 pp. 2114-30) in each panel was a pre-specified criteria for termination of the study.

[2] = system: capacity of platelets to bind fibrinogen; conditions: 25 μg/kg (high) bolus compared with 20 μg/kg bolus; 1 μM adenosine diphosphate; flow cytometry
Description: Blood was obtained after 5 minutes for analysis by flow cytometry. […] Blood for flow cytometry was anticoagulated with corn trypsin inhibitor, a specific inhibitor of coagulation factor XIIa without effect on other coagulation factors (Schneider et al., Circulation (1997) vol. 96 pp. 2877-83). […] For flow cytometry, samples were processed and platelets were fixed at each site. […] Light transmission aggregometry and rapid platelet function analyzer were performed with […] -chloromethyl ketone as the anticoagulant and flow cytometry was performed with blood anticoagulated with corn trypsin inhibitor.

platelet aggregation [3] = conditions: patients; 10 μg/kg bolus followed by 0.15 μg/kg/min infusion; 15 to 60 minutes after bolus; monohydrochloride; cited from earlier work
platelet aggregation [4] = conditions: patients, 15 through 60 minutes, 20 μM adenosine diphosphate, monohydrochloride
Description: Patients were treated with a 20 μg/kg bolus of tirofiban hydrochloride followed by a 0.15 μg/kg/min infusion for 18-24 hours or a 25 μg/kg bolus followed by the same infusion. Enrollment of subjects in the panel with the 20 μg/kg bolus (n=15/panel) was completed and the clinical effects and pharmacodynamic properties were evaluated before subjects were enrolled in the panel with the 25 μg/kg bolus. Patients were treated with aspirin (325 mg before the procedure and daily) and unfractionated heparin (target activated clotting time 250 seconds). Clopidogrel (300 mg and then 75 mg daily)(commercially available as PLAVIX®) was administered at least 45 minutes after the start of tirofiban hydrochloride. All other medications were administered at the discretion of the attending cardiologist. Sheath removal was performed when the activated clotting time was less than 175 seconds unless a closure device was used.

- major bleeding episodes ([1]; 20 μg/kg bolus followed by 0.15 μg/kg/min infusion for 18-24 hours): No major bleeding episode occurred
- major bleeding episodes ([1]; 25 μg/kg bolus followed by 0.15 μg/kg/min infusion for 18-24 hours): No major bleeding episode occurred
Structure (SMILES): CCCCS(=O)(=O)N[C@@H](Cc1ccc(OCCCCC2CCNCC2)cc1)C(=O)O [tirofiban hydrochloride, N-(butylsulfonyl)-O-[4-(4-piperidinyl)butyl]-L-tyrosine monohydrochloride]
- undesirable side effects ([1]; about 25 μg/kg bolus compared with conventional bolus): absence of increased undesirable side effects
- extent of inhibition of the capacity to bind fibrinogen [2]: greater
- average inhibition of maximal aggregation / % Inhibition of platelet aggregation 15-60 minutes after bolus injection (platelet aggregation [3]): 61-66%
- average extent of inhibition of platelet aggregation / % Inhibition of platelet aggregation 15-60 minutes after bolus injection (platelet aggregation [4]; 20 μg/kg bolus followed by 0.15 μg/kg/min infusion): 84-89%
- average extent of inhibition of platelet aggregation / % Inhibition of platelet aggregation 15-60 minutes after bolus injection (platelet aggregation [4]; 25 μg/kg bolus followed by 0.15 μg/kg/min infusion, listed as tirofiban): 92-95%
- average extent of inhibition of platelet aggregation / % Inhibition of platelet aggregation 15-60 minutes after bolus injection (platelet aggregation [4]; 25 μg/kg bolus followed by 0.15 μg/kg/min infusion): greater than 90%
